According to patent US11161876B2, “Anti-inflammatory nanofibers” (Northwestern University, priority 2015, dated 2021):
* marks the point of attachment. C16 alkyl = CCCCCCCCCCCCCCCC*

Legend:
[1] = test system: Rat Bladder Augmentation Model; experiment: Bladder tissue collagen quantification (Masson's Trichrome); type: in vivo; conditions: for mean level of collagen in regenerated bladder tissue: means±SE; for collagen levels, in words: 10 days post-augmentation, compared between groups
Protocol: (§1) Athymic female rats (weighing ˜200 g and 8-10 weeks old; National Cancer Institute Animal Production Program) underwent bladder augmentation (ref. 15; herein incorporated by reference in its entirety). Athymic rats were chosen for this study to solely examine the innate immune response to inflammation without influence of the adaptive immune response. In order to induce anesthesia, animals were given intraperitoneal injections of 60 mg/kg ketamine and 5 mg/kg xylazine. A second injection consisting of Buprenex (1 mg/kg) was administered subcutaneously to alleviate any pain/discomfort during and following surgical procedures. An approximate 1.5 cm midline vertical skin incision was created to expose the abdominal fascia and muscles. This was immediately followed by the separation of the wall leading to the identification of the bladder. An approximate 70% supratrigonal cystectomy was performed from anterior to posterior creating a clamshell. Immediately prior to bladder augmentation procedures, samples of the pro-inflammatory biological scaffold, small intestinal submucosa (SIS (0.5×0.5 cm); Cook Biotech.) (refs. 12,13,16; herein incorporated by reference in their entireties) were thoroughly dip-coated separately in one of the previously described AIF-PAs following gelation procedures. The sections of SIS were dip-coated for approximately 20 seconds and allowed to adhere to the SIS for an additional 30 seconds. Dip-coating procedures were performed at room temperature in air. The cystectomized bladder defect was then augmented with: 1) SIS (non-AIF-PA coated SIS; n=8 animals over both time-points); 2) AIF-PA1 coated SIS (denoted as SIS/AIF-PA1; n=11 animals over both time-points); 3) AIF-PA2 coated SIS (denoted as SIS/AIF-PA2; n=8 animals over both time-points); 4) AIF-PA3 coated SIS (denoted as SIS/AIF-PA3; n=3); 5) AIF-PA4 coated SIS (denoted as SIS/AIF-PA4; n=3 animals); 6) AIF-PA5 coated SIS (denoted as SIS/AIF-PA5; n=3 animals); and 7) AIFC-PA6 coated SIS (denoted as SIS/AIFC-PA6; n=9 animals over both time-points). The bladder was finally covered with omentum after being closed in a watertight manner utilizing 7-0 polyglactin suture. The abdominal wall was then closed in a single layer with 5-0 ethibond running suture and the skin re-approximated with 9 mm autoclips. Each group was sacrificed at 10 day and 5 week time-points.
Explanted bladder specimens encompassing the entire thickness of the bladder were isolated immediately following euthanasia and processed (ref. 15; herein incorporated by reference in its entirety). Specimens were fixed in a 10% buffered formalin phosphate (Fisher Scientific, Inc.) solution followed by a series of graded ethanol exchanges then embedded in paraffin (Fisher Scientific). Embedded tissues were sectioned onto glass slides at a thickness of 10 μm using a RM2125 RT Microtome (Leica) onto glass slides and subjected to staining with Masson's Trichrome (Sigma-Aldrich Corp.) reagent. The paraffin was removed from tissue containing slides using a hot plate at 62° C. for 6 minutes and was followed by treatment with xylenes, graded ethanol washes and DI water. Slides were placed in Bouin's solution (Sigma-Aldrich Corp.) for approximately 15 min then rinsed under running tap water. The samples were then stained 5 minutes with Hematoxylin and rinsed with running water and subsequently stained with Scarlet-Acid Fuchsin (Sigma-Aldrich Corp.). Slides were rinsed again with DI water and placed into a mixture of PTA/PMA, followed by Aniline Blue solution and a 1% acetic acid wash. Finally, slides were placed in 95-100% ethanol and rinsed in xylene. Following air drying, a coverslip was placed over the specimen sample and secured with Permaslip (Alban Scientific Inc).
Bladder tissue specimens were evaluated for collagen content (refs. 13,15,17; herein incorporated by reference in their entireties). […]

[2] = test system: Rat Bladder Augmentation Model; experiment: Lectin labelling of functional blood vessels in regenerated bladder; type: in vivo; conditions: 5W post-augmentation
Protocol: In order to determine whether blood vessels in regenerating tissue underwent functional angiogenesis, a fluorochrome conjugated tomato lectin was injected into the animals immediately prior to euthanization to label potential angiogenic vessels. […] Magnification 400× (Scale bar, 50 μm).

[3] = test system: Rat Bladder Augmentation Model; experiment: Bladder capacity measurement of augmented bladders; type: in vivo; conditions: 5 weeks post-augmentation vs pre-surgery; means ± SE
Protocol: Athymic female rats (weighing ˜200 g and 8-10 weeks old; National Cancer Institute Animal Production Program) underwent bladder augmentation (ref. 15; herein incorporated by reference in its entirety). Athymic rats were chosen for this study to solely examine the innate immune response to inflammation without influence of the adaptive immune response. In order to induce anesthesia, animals were given intraperitoneal injections of 60 mg/kg ketamine and 5 mg/kg xylazine. A second injection consisting of Buprenex (1 mg/kg) was administered subcutaneously to alleviate any pain/discomfort during and following surgical procedures. An approximate 1.5 cm midline vertical skin incision was created to expose the abdominal fascia and muscles. This was immediately followed by the separation of the wall leading to the identification of the bladder. An approximate 70% supratrigonal cystectomy was performed from anterior to posterior creating a clamshell. Immediately prior to bladder augmentation procedures, samples of the pro-inflammatory biological scaffold, small intestinal submucosa (SIS (0.5×0.5 cm); Cook Biotech.) (refs. 12,13,16; herein incorporated by reference in their entireties) were thoroughly dip-coated separately in one of the previously described AIF-PAs following gelation procedures. The sections of SIS were dip-coated for approximately 20 seconds and allowed to adhere to the SIS for an additional 30 seconds. Dip-coating procedures were performed at room temperature in air. […]
The bladders of anesthetized athymic rats were exposed through the abdomen as previously described. […] Continuous reading of the transvesical pressure was measured and plotted using LabChart 7.3 software (AD Instruments). […] Bladder capacity was measured by a modified protocol (ref. 13; herein incorporated by reference in its entirety). […]

CD68+ macrophages = experiment: Immunofluorescence quantification of CD68+ macrophages in regenerated bladder tissue; type: in vivo, rat
Protocol: as §1
Tissue sections comprised of SIS alone, SIS/AIF-PA1, SIS/AIF-PA2, and SIS/AIF-PA6 augmentations were subjected to immunofluorescence staining by initially undergoing antigen retrieval which consisted of 15 min of boiling in citrate buffer (0.01M citrate solution, pH 6.0 with 0.05% Tween-20) followed by cooling at room temperature for approximately 20 minutes. The antibody staining process consisted of a blocking step for 15 min in bovine serum albumin (BSA, 5 mg/ml) followed by a 40 minutes incubation at room temperature with the primary antibody. After washing with DPBS, slides were incubated for 30 min with a secondary antibody and eventually rinsed with DPBS and air dried. Slides were mounted with Vectashield (Vector Laboratories). Primary antibodies were directed against epitopes for the inflammatory markers CD68 (macrophage) (refs. 18,19; herein incorporated by reference in their entireties) MPO (neutrophil) (ref. 20; herein incorporated by reference in its entirety) or the inflammation-related proteins IL1β, TNFα, IL-10, IL-13, CD206 (M2 macrophage) (refs. 21-25; herein incorporated by reference in their entireties) and CD86 (M1 macrophage) (ref. 26; herein incorporated by reference in its entirety). Antibodies directed against the ECM in regenerating bladder tissue (including COL4A3 and fibronectin) were also utilized. Alexa Red 555 or FITC conjugated secondary antibodies (Molecular Probes) were utilized for visualization (ref. 15; herein incorporated by reference in its entirety). […]

Substance	mean level of collagen in regenerated bladder tissue ([1]; 5W post-augmentation) [%]	mean level of collagen in regenerated bladder tissue ([1]; 10D post-augmentation) [%]	collagen levels, in words [1]	functional angiogenesis of newly formed blood vessels (lectin) [2]	Bladder Capacity Recovery [3] [%]	percentage of cells CD68+ (CD68+ macrophages; 5 weeks post-augmentation) [%]	percentage of cells CD68+ (CD68+ macrophages; 10 days post-augmentation) [%]
C16-VVVAAAEEEHDMNKVLDL (SEQ ID NO:2) ({C16 alkyl}-VVVAAAEEEHDMNKVLDL-NH2) [SIS/AIF-PA2, anti-inflammatory peptide amphiphile, tested dip-coated on small intestinal submucosa (SIS) scaffold]	58.0±0.6	58.6±0.4	lesser degrees of collagen	functional, patent blood vessels	104.4 ± 6.7	16.5±1.6	23.1±3.3
C16-VVVAAAEEEKLMSQKMVD (SEQ ID NO:6) ({C16 alkyl}-VVVAAAEEEKLMSQKMVD-NH2) [SIS/AIFC-PA6, reference compound]	68.8±2.7	71.5±1.4			105.4 ± 5.1	42.0±2.6	
C16-VVVAAAEEEMQMKKVLDS (SEQ ID NO:1) ({C16 alkyl}-VVVAAAEEEMQMKKVLDS-NH2) [SIS/AIF-PA1, anti-inflammatory peptide amphiphile, tested dip-coated on small intestinal submucosa (SIS) scaffold]	55.0±1.2	59.1±1.1	lesser degrees of collagen	functional, patent blood vessels	112.1 ± 3.3	17.6±1.8	33.4±2.0
